Patent US9801873B2, “Methods for treating humans having brain cancer” (priority 2008, dated 2017)
Where two headings read alike, the source gives them in different places.

Tests used:
A2780 ovarian tumors = conditions: for activity in A2780 ovarian tumor model: 3 weekly intra-peritoneal administrations; for tumor growth delay (TGD): 3 weekly intravenous injections
Protocol: Anti-tumor efficacy was evaluated based on tumor growth delay (TGD) in mice and response rate in mice and humans.
Animals were weighed and monitored twice weekly, and tumor volumes were measured until an endpoint was met (2000 mm^3 or 60 days). Anti-tumor efficacy was evaluated based on tumor growth delay and response rate or partial or complete regression (PR or CR). In a PR, the tumor volume was 50% or less of its Day 1 volume for three consecutive measurements, and equal to or greater than 14 mm^3 for one or more of these three measurements. In a CR, the tumor volume was less than 14 mm^3 for three consecutive measurements. An animal with a CR response at termination was additionally classified as tumor-free survivior (TFS). A Student's T-test was performed to calculate statistical significance (p<0.05).

[1] = cited from earlier work
[2] = Phase 1 trial: plasma pharmacokinetics by LC-MS/MS and population PK model (SN-38 exposure and half-life); conditions: plasma analyte after administration of Compound I
Protocol: Tumor responses were evaluated according to RECIST (Response Evaluation Criteria in Solid Tumors) criteria.

Which “activity in A2780 ovarian tumor model” value (A2780 ovarian tumors) does the source give for N.N.[Cl][Pt][Cl] [cisplatin] here?
The value was “inactive”.

With N.N.O=C([O-])C1(C(=O)[O-])CCC1.[Pt+2] [carboplatin] as the compound, how does the “activity in A2780 ovarian tumor model” value (A2780 ovarian tumors) read?
Its value is “inactive”.

Which “tumor growth delay (TGD)” value (A2780 ovarian tumors; 50 mg/kg) does the source give for CCc1c2c(nc3ccc(OC(=O)N4CCC(N5CCCCC5)CC4)cc13)-c1cc3c(c(=O)n1C2)COC(=O)[C@]3(O)CC [irinotecan] here?
Its value is 12 days.

And the “tumor growth delay (TGD)” value (A2780 ovarian tumors; 100 mg/kg)?
The value was 15 days.

And the “tumor growth delay (TGD)” value (A2780 ovarian tumors; 150 mg/kg)?
The value was 16 days.

And the tolerability in mice (A2780 ovarian tumors; 3 weekly intravenous doses of 50, 100, or 150 mg/kg)?
Its tolerability in mice is “acute effects immediately after dosing (tremors, hypoactivity, ataxia, pilo-erection, increased stool production)”.

What about the “partial responses (PR)” value (A2780 ovarian tumors; highest dose (150 mg/kg), n=10) of the same compound?
Its value is “one partial response (PR)”.

What about the SN-38 plasma levels ([1]; higher doses (2.8, 4.6 mg/m^2 per day), dosing period of 63 days) of the same compound?
The SN-38 plasma levels was 2 to 4 ng/mL.

What about the SN-38 plasma levels ([1]; lowest dose (1.4 mg/m^2 per day continuous iv infusion), up to 63 days) of the same compound?
The SN-38 plasma levels was “around 1 ng/ml”.

What does the source list for CCc1c2c(nc3ccc(O)cc13)-c1cc3c(c(=O)n1C2)COC(=O)[C@]3(O)CC [SN-38, 7-ethyl-10-hydroxy camptothecin]?
T1/2 λz, In Responding Patients (range) [2]: 14.4 to 98.3 days; T1/2 λz, Population Estimate in Responding Patients [2]: 49.1 days
